Format in all cases: cell-based
The subject of test [1] is α-SMA expression in normal human dermal fibroblasts (NHDFs). Description: Inhibition of TGF-β-induced differentiation of fibroblasts into myofibroblasts: α-SMA expression by quantitative RT-PCR and Western blot. To be noted: NHDF cultures, TGF-β 10 ng/ml, KSOS 2 mg/ml, D4. As to the method: (§1) Cultures of normal human dermal fibroblasts (NHDFs) were prepared in DMEM/F12 culture medium (sold by the company Invitrogen) supplemented with 10% of fetal calf serum (sold by the company Invitrogen), with 5 μg/ml of insulin (sold by the company Promokine) and with 1 ng/ml of bFGF (sold by the company Promokine).
(§2) For this, the NHDF cultures were placed in a P100 dish coated with collagen at 5 μg/ml in DMEM/F12 medium supplemented with 10% of fetal calf serum and supplemented with 10 ng/ml of TGF-β(sold by the company Promocell), which is a growth factor that controls cell proliferation and differentiation (differentiated control in FIG. 1).
(§3) A nondifferentiated control was also prepared using cultures in DMEM/F12 supplemented with 10% calf serum without TGF-β.
(§4) The KSOS was added to the control and differentiated-control cultures to determine its effect on differentiation, in a proportion of 2 mg/ml.
(§5) The results were analyzed after 4 days of culture.
For the measurement of the inhibitory effect of the compound according to the invention, KSOS was added at 2 mg/ml to the cultures undergoing differentiation. • By quantitative RT-PCR: the mRNA was extracted using the Trizol, chloroform and isopropanol method. • By the Western blot method: total cell extracts were prepared and a Western blot was carried out. […]

Test [2] relates to normal human dermal fibroblasts (NHDFs). Description: Differentiation of fibroblasts into myofibroblasts: α-SMA immunofluorescence and counting of differentiated cells. To be noted: NHDF cultures, TGF-β 10 ng/ml, KSOS 2 mg/ml, 4 days of culture. As to the method: as §1, §2, §3, §4, §5
The cells were fixed with 4% formaldehyde and permeabilized with Triton. The immunolabeling is carried out using DAPI staining (which gives a blue color) for the cell nuclei, a rabbit anti-α-SMA antibody and an anti-rabbit secondary antibody coupled to Cys3 (sold by Promega).
The number of differentiated cells over the total number of cells is determined by cell counting. […]

Test [3] deals with collagen lattices seeded with normal human dermal fibroblasts (NHDFs). The experiment in a line: Collagen lattice retraction (area of collagen lattices seeded with NHDFs). Conditions: for % relative to the control: lattice area relative to control without dressing. As to the method:
The collagen lattices were obtained by seeding 0.8×10^6 normal human dermal fibroblasts (NHDFs) in a gel of collagen type I with a final concentration of 1.3 mg/ml.
A dressing (sold under the trade name Urgotul Start) comprising 7.5% of the potassium salt of sucrose octasulfate was applied to the surface of the collagen lattices.
A control series, without dressing, was carried out in order to evaluate the normal contraction of the collagen gel by the seeded NHDFs.
Likewise, a positive control was carried out by adding TGF-β at a concentration of 10 ng/ml in order to visualize the strong contraction induced by the NHDFs highly differentiated into myofibroblasts.
The incubation was maintained up to 7 days.
The effects of the potassium salt of sucrose octasulfate on the retraction of the collagen lattices was observed by means of photographic analysis (FIG. 2) and image analysis measurement of the area of the lattices once contracted.

For `O=S(=O)([O-])OC[C@H]1O[C@@](COS(=O)(=O)[O-])(O[C@H]2O[C@H](COS(=O)(=O)[O-])[C@@H](OS(=O)(=O)[O-])[C@H](OS(=O)(=O)[O-])[C@H]2OS(=O)(=O)[O-])[C@@H](OS(=O)(=O)[O-])[C@@H]1OS(=O)(=O)[O-].[K+].[K+].[K+].[K+].[K+].[K+].[K+].[K+]` [KSOS, potassium salt of sucrose octasulfate], in test [1], the “α-SMA expression (mRNA by quantitative RT-PCR, protein by Western blot)” value is on record as “inhibition of this induction”. Besides, the “differentiation of fibroblasts into myofibroblasts (differentiated cells expressing α-SMA, immunofluorescence)” value in test [2] is on record as “inhibition of the differentiation”. Also, the “contraction of the collagen lattices (in words)” value in test [3] (between day 1 and day 7) is reported as “limits the contraction of the collagen lattices”.

On to TGF-β, for which the “α-SMA expression (mRNA by quantitative RT-PCR, protein by Western blot)” value in test [1] is on record as “induction of α-SMA expression”. Also, the “Average of the areas” value in test [3] (Day 1) was found to be 217.3 mm^2; in test [3] (Day 4), 145.9 mm^2; in test [3] (Day 7), 97 mm^2. Also, the entries for the “% relative to the control” value in test [3] (Day 1), in test [3] (Day 4) and in test [3] (Day 7) were 95%, 76% and 56%, respectively.

The values above are taken from US9555053B2, “Use of oligosaccharide compounds for the prevention and treatment of pathological scars” (LABORATOIRES URGO, priority 2011, dated 2017).
